Source: BindingDB's records for doi:10.7270/Q2736PC9 (Broad Institute, 2010)

These molecules were tested against T1, Alkanal monooxygenase alpha chain (Vibrio harveyi, UniProt P07740) (assay: bacterial growth suppression, V. harveyi – absorbance, counter-screen for quorum sensing inhibitor project, dose response (AID 434943)).
T1 sequence (P07740 whole entry): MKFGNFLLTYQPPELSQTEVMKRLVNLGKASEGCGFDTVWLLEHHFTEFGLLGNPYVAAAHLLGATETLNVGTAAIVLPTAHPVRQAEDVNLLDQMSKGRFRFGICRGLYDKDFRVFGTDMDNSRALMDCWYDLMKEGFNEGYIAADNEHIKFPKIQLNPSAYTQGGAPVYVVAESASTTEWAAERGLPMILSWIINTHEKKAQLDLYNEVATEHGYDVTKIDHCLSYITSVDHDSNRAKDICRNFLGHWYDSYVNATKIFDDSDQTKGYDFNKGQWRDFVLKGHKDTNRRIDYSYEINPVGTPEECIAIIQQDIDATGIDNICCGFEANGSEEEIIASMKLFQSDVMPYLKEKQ

Structure (SMILES)	EC50 [µM]
C=Cn1c(C(=O)O)ccc1-c1ccc(CC)cc1	> 160
COc1cc(NC(=O)CN2C(=O)NC(c3ccccc3)(c3ccccc3)C2=O)cc(OC)c1 [MLS001176525]	> 160
CCc1ccc(S(=O)(=O)Nc2ccc(Br)cn2)cc1 [MLS001211346]	> 160
CCCc1ccc(S(=O)(=O)N(C)S(=O)(=O)c2ccc(F)cc2)cc1 [N-(4-fluorophenyl)sulfonyl-N-methyl-4-propylbenzenesulfonamide]	> 160
CN(C)S(=O)(=O)c1ccc(NC(=S)NC(=O)Cc2ccccc2)cc1 [N-[[4-(dimethylsulfamoyl)phenyl]carbamothioyl]-2-phenyl-ethanamide]	> 160

Other lines, results leading:

EC50 [µM]	Structure (SMILES)
> 160	Cc1cccc(NS(=O)(=O)c2ccc(Oc3ccccc3)cc2)n1 [SMR000071466]
> 160	Cn1cnc(S(=O)(=O)Nc2ccc(OC(F)(F)F)cc2)c1 [SMR000314513]
